Data published in US20130337564A1, “Treatment of Pluripotent Cells” (Janssen Biotech, Inc., priority 2012, published 2013).
Values joined by “and” are separate entries in the source; they are usually repeats but may differ in a detail not shown here. Equal values may be shown once.

Legend:
[1] = system: human embryonic stem cells (H9 or H1 lines); assay: Plate reader (MTS) proliferation assay; format: cell-based; details: for Average: average of replicate raw data; for activity at 10 µM: Homo sapiens, Embryonic stem cell, 96 h; for activity at 10 µM / % Control Value (proliferation): 10 μM test compound with 100 ng/ml activin A on days 1-2, MTS OD490 on day 4, vs Activin A/Wnt3a positive control, strong and moderate hits; for Raw Data: replicate wells, plate reader proliferation screen of GSK-3B inhibitors
Procedure: Maintenance of human embryonic stem cells (H9 or H1 lines) was conducted as described in Example 1. Colonies of cells were maintained in an undifferentiated, pluripotent state with passage on average every four days. Passage was performed by exposing cell cultures to a solution of collagenase (1 mg/ml; Sigma-Aldrich) for 10 to 30 minutes at 37° C. followed by gentle scraping with a pipette tip to recover cell clusters. Clusters were allowed to sediment and washed to remove residual collagenase. Cell clusters were split at a ratio of 1:3 monolayer area for routine culture or a 1:1 ratio for immediate assay. The human embryonis stem cell lines used for these examples were maintained at passage numbers less than 50 and routinely evaluated for normal karyotypic phenotype as well as absence of mycoplasm contamination.
Cell clusters used in assay were evenly resuspended in normal culture medium and plated into MATRIGEL-coated 96-well Packard VIEWPLATES (PerkinElmer) in volumes of 100 μl/well. MEF conditioned medium supplemented with 8 ng/ml bFGF) was used for initial plating and recovery. Daily feeding was conducted by aspirating spent culture medium from each well and replacing with an equal volume of fresh medium. Plates were maintained at 37° C. in a humidified box, 5% CO2 throughout the duration of assay.
Primary screening assays were initiated by aspirating culture medium from each well followed by three washes in PBS to remove residual growth factors and serum. Test volumes of 80-100 μl per well were added back containing DMEM:F12 base medium (Invitrogen) supplemented with 0.5% FCS (HyClone) and 100 ng/ml activin A (R&D Biosystems) and 10 μM test compound. Positive control wells contained the same medium substituting 10-20 ng/ml Wnt3a (R&D Biosystems). Negative control wells contained base medium with 0.5% FCS without activin A or Wnt3a. Screening compounds were tested in triplicate. Wells were aspirated and fed again with identical solutions on day 2 of the assay. On days 3 and 4, all assay wells were aspirated and converted to DMEM:F 12 supplemented with 2% FCS and 100 ng/ml activin A with the exception of negative control wells which were maintained in DMEM:F12 base medium with 2% FCS.
On day 4 of assay, 15-20 μl of MTS (Promega) was added to each well and plates were incubated at 37° C. for 1.5 to 4 hours. Densitometric readings at OD490 were determined using a Molecular Devices spectrophotometer plate reader. Average readings for replicate sets were calculated along with standard deviation and coefficient of variation. Experimental wells were compared to the Activin A/Wnt3a positive control to calculate a percent control value as a measure of proliferation.
Strong hits are defined as greater than or equal to 120% of control values; moderate hits are defined as falling within the interval of 60-120% of control values. A significant number of compounds induce a proliferative response in this assay.

[2] = system: cells expressing pluripotency markers derived from human embryonic stem cells; assay: MTS viability (toxicity) assay of cells expressing pluripotency markers; format: cell-based; set-up: Raw data (duplicate), first replicate / Average: unit not given here; details: for viability at 10 µM: Homo sapiens, Embryonic stem cell; for viability at 10 µM / % Control: viability of cells expressing pluripotency markers, relative to control; for Raw data (duplicate), first replicate / Raw data (duplicate), second replicate: MTS viability assay raw reading; for Raw data (duplicate), first replicate: replicate 1; for Raw data (duplicate), second replicate: replicate 2; for Average: average of duplicate MTS raw readings
Procedure: Derivation and maintenance of cells expressing pluripotency makers was conducted as has been described in Example 2. Cells were grown in DMEM:F12 supplemented with 2% FCS (Invitrogen), 100 ng/ml Activin A, 20 ng/ml Wnt-3a, and 50 ng/ml IGF (R&D Biosystems). Cells were seeded at a density of 10,000 cells/cm^2 on Falcon polystyrene flasks and grown in monolayer culture at 37° C., 5% CO2, low oxygen. After reaching 60-70% confluence, cells were passed by washing the monolayer with PBS and incubating with TrypLE (Invitrogen) for 3-5 minutes to allow detachment and single cell dispersal.
Screening was conducted using test compounds from a proprietary library of small molecules selected for their ability to inhibit GSK-3B enzyme activity. Compounds from this library were made available as 1 mM stocks, in a 96-well plate format in 50 mM HEPES, 30% DMSO. For assay, cells expressing pluripotency markers were washed, counted, and plated in normal culture medium at a seeding density of 20,000 cells per well in 96-well clear-bottom, dark-well plates (Costar). This seeding density was previously determined to yield optimal monolayer formation in overnight culture. On the following day, culture medium was removed, cell monolayers were rinsed three times with PBS, and test compounds were added to the wells in 80 μl aliquots, each diluted into assay medium at a final assay concentration of 10 μM. On day 2 of the assay, medium was removed from each well and replaced with a fresh aliquot of test compounds diluted into assay medium. Assay medium on days 1 and 2 of culture consisted of DMEM:F12 supplemented with 0.5% FCS and 100 ng/ml Activin A. On days 3 and 4 of culture, medium was removed from each well and replaced with DMEM:F12 supplemented with 2% FCS and 100 ng/ml Activin A (no test compound). On day 4 of assay, 15 μl of MTS (Promega) was added to each well and plates were incubated at 37° C. for 1.5 to 4 hours prior to reading optical density at 490 nm on a SpectraMax (Molecular Devices) instrument. Statistical measures consisting of mean, standard deviation, and coefficient of variation were calculated for each duplicate set. Toxicity was calculated for each test well relative to a positive control (wells treated with Activin A and Wnt3a on days 1 and 2 of culture).
A larger proportion of the compounds have minimal or no measurable toxicity in this cell-based assay.
A small panel of select compounds was repeat tested over a narrow dose titration range, again using cells expressing pluripotency markers in a similar assay as described above.

Structure (SMILES) | Average [1] | viability at 10 µM [2] | Raw data (duplicate), first replicate [2] | Raw data (duplicate), second replicate [2] | Average [2] | activity at 10 µM [1] | % Control Value (proliferation) [1] | Raw Data [1] | % Control [2]
O=C1NC(=O)C(c2cccc3c2oc2ccccc23)=C1c1cn(CCCO)c2ncccc12 [Compound 33, 3-Dibenzo[b,d]furan-4-yl-4-[1-(3-hydroxypropyl)-1H-pyrrolo[2,3-b]pyridin-3-yl]-1H-pyrrole-2,5-dione] | 0.1889 | 45.2% | 0.315 | 0.542 | 0.428 |  |  |  | 
O=C1NC(=O)C(c2cccc3c2sc2ccccc23)=C1c1cn(CCCO)c2ncccc12 [Compound 34, 3-Dibenzo[b,d]thien-4-yl-4-[1-(3-hydroxypropyl)-1H-pyrrolo[2,3-b]pyridin-3-yl]-1H-pyrrole-2,5-dione] | 0.1420 | 83.5% | 0.750 | 0.624 | 0.687 |  |  |  | 
COc1ncc(C2=C(c3cn(CCCO)c4ncccc34)C(=O)NC2=O)c(OC)n1 [Compound 48, 3-[2,4-Bis(methyloxy)pyrimidin-5-yl]-4-[1-(3-hydroxypropyl)-1H-pyrrolo[2,3-b]pyridin-3-yl]-1H-pyrrole-2,5-dione] |  |  |  |  |  | 148% |  |  | 
COCCCn1cc(C2=C(c3ccccc3OC)C(=O)NC2=O)c2cnccc21 [Compound 55, 3-[2-(Methyloxy)phenyl]-4-{1-[3-(methyloxy)propyl]-1H-pyrrolo[3,2-c]pyridin-3-yl}-1H-pyrrole-2,5-dione] | 1.1695 | 115% | 0.952 | 0.919 | 0.935 | 152% |  |  | 
COc1ncc(C2=C(c3cn(CCCC#N)c4ncccc34)C(=O)NC2=O)c(OC)n1 [Compound 74, 4-(3-{4-[2,4-Bis(methyloxy)pyrimidin-5-yl]-2,5-dioxo-2,5-dihydro-1H-pyrrol-3-yl}-1H-pyrrolo[2,3-b]pyridin-1-yl)butanenitrile] |  | 78.8% |  |  |  | 130% |  |  | 
O=C1NC(=O)C(c2nn(CCCO)c3ccccc23)=C1c1cn(C2CCOCC2)c2ccccc12 [Compound 78, 3-[1-(3-Hydroxypropyl)-1H-indazol-3-yl]-4-[1-(tetrahydro-2H-pyran-4-yl)-1H-indol-3-yl]-1H-pyrrole-2,5-dione] | 1.0282 | 22% | 0.300 | 0.223 | 0.261 | 154% |  |  | 
Cn1cc(C2=C(c3nn(CC(=O)NCCO)c4ccccc34)C(=O)NC2=O)c2cc(Cl)ccc21 [Compound 82, 2-{3-[4-(5-Chloro-1-methyl-1H-indol-3-yl)-2,5-dioxo-2,5-dihydro-1H-pyrrol-3-yl]-1H-indazol-1-yl}-N-(2-hydroxyethyl)acetamide] | 0.8929 | 95% | 0.684 | 0.809 | 0.746 | 131% |  |  | 
Cn1ccc(C2=C(c3cn(CCCC#N)c4ncccc34)C(=O)NC2=O)n1 [Compound 94, 4-{3-[4-(1-Methyl-1H-pyrazol-3-yl)-2,5-dioxo-2,5-dihydro-1H-pyrrol-3-yl]-1H-pyrrolo[2,3-b]pyridin-1-yl}butanenitrile] | 0.9819 | 95% | 0.810 | 0.683 | 0.746 | 146% |  |  | 
COc1ncc(C2=C(c3cn(CCc4ccccc4)c4ncccc34)C(=O)NC2=O)c(OC)n1 [Compound 98, 3-[2,4-Bis(methyloxy)pyrimidin-5-yl]-4-[1-(2-phenylethyl)-1H-pyrrolo[2,3-b]pyridin-3-yl]-1H-pyrrole-2,5-dione] | 0.6374 | 88.1% | 0.758 | 0.575 | 0.667 | 88% |  |  | 
O=C1NC(=O)C2=C1c1cn(c3ccccc13)CCOCCOCCN(Cc1ccccc1)CCn1cc2c2ccccc21 [Compound 105, 14-(Phenylmethyl)-6,7,9,10,13,14,15,16-octahydro-12H,23H-5,26:17,22-di(metheno)dibenzo[k,q]pyrrolo[3,4-n][1,4,7,10,19]dioxatriacyclohenicosine-23,25(24H)-dione] | 1.2038 |  | 0.916 | 0.859 | 0.887 |  | 183.8% | 1.0968 and 1.3108 | 124.0%
O=C1NC(=O)C2=C1c1cn(c3ccccc13)CCOCCOCCN(Cc1ccco1)CCn1cc2c2ccccc21 [Compound 127, 14-(Furan-2-ylmethyl)-6,7,9,10,13,14,15,16-octahydro-12H,23H-5,26:17,22-di(metheno)dibenzo[k,q]pyrrolo[3,4-n][1,4,7,10,19]dioxatriazacyclohenicosine-23,25(24H)-dione] | 0.9229 and 1.0032 |  | 0.745 and 0.744 | 0.685 and 0.737 | 0.715 and 0.741 |  | 136.8% and 124.4% | 0.9589 and 0.8868 and 1.0442 and 0.9622 | 90.2% and 94.1%
O=C1NC(=O)C2=C1c1cn(c3ccccc13)CCOCCOCCN(Cc1ccncc1)CCn1cc2c2ccccc21 [Compound 139, 14-(Pyridin-4-ylmethyl)-6,7,9,10,13,14,15,16-octahydro-12H,23H-5,26:17,22-di(metheno)dibenzo[k,q]pyrrolo[3,4-n][1,4,7,10,19]dioxatriazacyclohenicosine-23,25(24H)-dione] | 0.8650 |  | 0.532 | 0.682 | 0.607 |  | 115.5% | 0.9184 and 0.8116 | 78.3%
O=C1NC(=O)C(c2cn(CCCO)c3ncccc23)=C1c1cc2ccccc2o1 [Compound 241, 3-(1-Benzofuran-2-yl)-4-[1-(3-hydroxypropyl)-1H-pyrrolo[2,3-b]pyridin-3-yl]-1H-pyrrole-2,5-dione] |  | 85.3% |  |  |  |  |  |  | 
